In patent publication US7163923B2, “Peptide deformylase activated prodrugs” (Celmed Oncology (USA), Inc., priority 2001, dated 2007):
In brackets after ≈: the same amount, converted by molar mass. Where two headings read alike, the source gives them in different places.

Tests used:
Assay type in all cases: cell-based
E. aerogenes = assay: MIC susceptibility testing (modified NCCLS, 384-well); details: Klebsiella aerogenes
Experimental: (§1) The NCCLS (National Committee for Clinical Laboratory Standards), method to determine MIC's of antimicrobial compounds is modified for high-throughput screening. All stocks of tested compounds are prepared in either water or in DMSO depending on solubility. At the highest concentration, DMSO content should not exceed 0.5%. Briefly, twenty 2-fold serial dilutions of test compounds from the highest concentration are made in a 384-well microtiter plate. […] Bacterial growth is determined by the increase of optical density at 600 nm using a microplate reader (Tecan SpectraFluor Plus).

E. cloacae = assay: as above; details: Enterobacter cloacae
Experimental: as §1

E. faecalis = assay: as above; details: Enterococcus faecalis
Experimental: as §1

H. influenzae = assay: as above; details: Haemophilus influenzae
Experimental: as §1

K. pneumoniae = assay: as above; details: Klebsiella pneumoniae
Experimental: as §1

M. catarrhalis = assay: as above
Experimental: as §1

P. aeruginosa = assay: as above; details: Pseudomonas aeruginosa
Experimental: as §1

S. epidermidis = assay: as above; details: Staphylococcus epidermidis
Experimental: as §1

[1] = Toxicity to mammalian cells; details: after 16 hours of exposure
Experimental: Mammalian cells were treated with NB2046 as described above.

CSCCC(NC=O)C(=O)NC(CC(C)C)C(=O)Oc1cc(Cl)ccc1Oc1ccc(Cl)cc1Cl (centres unmarked) [NB2046, 2-(2-formylamino-4-methylsulfanyl-butyrylamino)-4-methyl-pentanoic acid 5-chloro-2-(2,4-dichloro-phenoxy)-phenyl ester]
MIC (E. aerogenes; ATCC29009, E. aerogenes ATCC 29009, Exp. #2, Table 3): ≤ 0.125 µg/mL | MIC (E. aerogenes; ATCC29751, E. aerogenes ATCC 29751, Exp. #1, Table 3): 2 µg/mL (≈ 3.56 µM) | MIC (E. aerogenes; ATCC29751, E. aerogenes ATCC 29751, Exp. #2, Table 3): 1 µg/mL (≈ 1.78 µM) | MIC (E. aerogenes; ATCC35028, E. aerogenes ATCC 35028, Exp. #1, Table 3): 4 µg/mL (≈ 7.12 µM) | MIC (E. aerogenes; ATCC35028, E. aerogenes ATCC 35028, Exp. #1, Table 4): 32 µg/mL (≈ 56.9 µM) | MIC (E. aerogenes; ATCC35028, E. aerogenes ATCC 35028, Exp. #2, Table 3): 2 µg/mL (≈ 3.56 µM) | MIC (E. aerogenes; ATCC35028, E. aerogenes ATCC 35028, Exp. #2, Table 4): 16 µg/mL (≈ 28.5 µM) | MIC (E. cloacae; ATCC23355, E. cloacae ATCC 23355, Exp. #1, Table 3): 0.5 µg/mL (≈ 0.89 µM) | MIC (E. cloacae; ATCC23355, E. cloacae ATCC 23355, Exp. #1, Table 4): 16 µg/mL (≈ 28.5 µM) | MIC (E. cloacae; ATCC23355, E. cloacae ATCC 23355, Exp. #2, Table 3): 0.5 µg/mL (≈ 0.89 µM) | MIC (E. cloacae; ATCC23355, E. cloacae ATCC 23355, Exp. #2, Table 4): 1 µg/mL (≈ 1.78 µM) | MIC (E. faecalis; ATCC49757, E. faecalis ATCC 49757, Exp. #1, Table 4): 64 µg/mL (≈ 114 µM) | MIC (E. faecalis; ATCC49757, E. faecalis ATCC 49757, Exp. #2, Table 4): 32 µg/mL (≈ 56.9 µM) | MIC (E. faecalis; ATCC700802, E. faecalis ATCC 700802, Exp. #1, Table 4): 32 µg/mL (≈ 56.9 µM) | MIC (E. faecalis; ATCC700802, E. faecalis ATCC 700802, Exp. #2, Table 4): 32 µg/mL (≈ 56.9 µM) | MIC (H. influenzae; ATCC33533, H. influenzae ATCC 33533, Exp. #1, Table 4): 64 µg/mL (≈ 114 µM) | MIC (H. influenzae; ATCC33533, H. influenzae ATCC 33533, Exp. #2, Table 4): ≥ 64 µg/mL | MIC (K. pneumoniae; ATCC51503, K. pneumoniae ATCC 51503, Exp. #1, Table 3): 8 µg/mL (≈ 14.2 µM) | MIC (K. pneumoniae; ATCC51503, K. pneumoniae ATCC 51503, Exp. #1, Table 4): 4 µg/mL (≈ 7.12 µM) | MIC (K. pneumoniae; ATCC51503, K. pneumoniae ATCC 51503, Exp. #2, Table 3): 8 µg/mL (≈ 14.2 µM) | MIC (K. pneumoniae; ATCC51503, K. pneumoniae ATCC 51503, Exp. #2, Table 4): 8 µg/mL (≈ 14.2 µM) | MIC (K. pneumoniae; ATCC51504, K. pneumoniae ATCC 51504, Exp. #1, Table 3): 1 µg/mL (≈ 1.78 µM) | MIC (K. pneumoniae; ATCC51504, K. pneumoniae ATCC 51504, Exp. #2, Table 3): 2 µg/mL (≈ 3.56 µM) | MIC (K. pneumoniae; ATCC700721, K. pneumoniae ATCC 700721, Exp. #1, Table 3): 2 µg/mL (≈ 3.56 µM) | MIC (K. pneumoniae; ATCC700721, K. pneumoniae ATCC 700721, Exp. #1, Table 4): 4 µg/mL (≈ 7.12 µM) | MIC (K. pneumoniae; ATCC700721, K. pneumoniae ATCC 700721, Exp. #2, Table 3): 2 µg/mL (≈ 3.56 µM) | MIC (K. pneumoniae; ATCC700721, K. pneumoniae ATCC 700721, Exp. #2, Table 4): 8 µg/mL (≈ 14.2 µM) | MIC (M. catarrhalis; M. catarrhalis ATCC 43627, Exp. #2, Table 3): ≦0.125 μg/ml | MIC (M. catarrhalis; M. catarrhalis ATCC 43628, Exp. #2, Table 3): ≦0.125 μg/ml | MIC (M. catarrhalis; M. catarrhalis ATCC 49265, Exp. #2, Table 3): ≦0.125 μg/ml | MIC (M. catarrhalis; M. catarrhalis ATCC 51584, Exp. #2, Table 3): ≦0.125 μg/ml | MIC (M. catarrhalis; Moraxella catarrhalis, ATCC43627, M. catarrhalis ATCC 43627, Exp. #1, Table 3, read-out: MIC): ≤ 0.125 µg/mL | MIC (M. catarrhalis; Moraxella catarrhalis, ATCC43628, M. catarrhalis ATCC 43628, Exp. #1, Table 3, read-out: MIC): ≤ 0.125 µg/mL | MIC (M. catarrhalis; Moraxella catarrhalis, ATCC49265, M. catarrhalis ATCC 49265, Exp. #1, Table 3, read-out: MIC): ≤ 0.125 µg/mL | MIC (M. catarrhalis; Moraxella catarrhalis, ATCC51584, M. catarrhalis ATCC 51584, Exp. #1, Table 3, read-out: MIC): ≤ 0.125 µg/mL | MIC (P. aeruginosa; ATCC21726, P. aeruginosa ATCC 21726, Exp. #1, Table 4): > 64 µg/mL | MIC (P. aeruginosa; ATCC21726, P. aeruginosa ATCC 21726, Exp. #2, Table 4): ≥ 64 µg/mL | MIC (P. aeruginosa; ATCC29872, P. aeruginosa ATCC 29872, Exp. #1, Table 4): > 64 µg/mL | MIC (P. aeruginosa; ATCC29872, P. aeruginosa ATCC 29872, Exp. #2, Table 4): ≥ 64 µg/mL | MIC (S. epidermidis; ATCC27626, S. epidermidis ATCC 27626, Exp. #1, Table 3): ≤ 0.125 µg/mL | MIC (S. epidermidis; ATCC27626, S. epidermidis ATCC 27626, Exp. #2, Table 3): ≤ 0.125 µg/mL | MIC (S. epidermidis; ATCC700565, S. epidermidis ATCC 700565, Exp. #1, Table 3): 2 µg/mL (≈ 3.56 µM) | MIC (S. epidermidis; ATCC700565, S. epidermidis ATCC 700565, Exp. #2, Table 3): 2 µg/mL (≈ 3.56 µM) | MIC (S. epidermidis; ATCC700566, S. epidermidis ATCC 700566, Exp. #1, Table 3): ≤ 0.125 µg/mL | MIC (S. epidermidis; ATCC700566, S. epidermidis ATCC 700566, Exp. #2, Table 3): ≤ 0.125 µg/mL | MIC (S. epidermidis; ATCC700578, S. epidermidis ATCC 700578, Exp. #1, Table 3): 0.5 µg/mL (≈ 0.89 µM) | MIC (S. epidermidis; ATCC700578, S. epidermidis ATCC 700578, Exp. #2, Table 3): 0.25 µg/mL (≈ 0.445 µM) | MIC (S. epidermidis; ATCC700583, S. epidermidis ATCC 700583, Exp. #1, Table 3): ≤ 0.125 µg/mL | MIC (S. epidermidis; ATCC700583, S. epidermidis ATCC 700583, Exp. #2, Table 3): ≤ 0.125 µg/mL | IC50 at 16 h [1]: ~30 µM
